The values below come from patent US20260242768A1, “ACETYL-COENZYME A CARBOXYLASE MUTANTS” (CIBUS US LLC, priority 2023, published 2026).

Experiment [1] concerns rice (Oryza sativa) plastidal ACCase. Briefly: Clethodim tolerance of rice ACCase mutations, yeast complementation assay (Examples 1-3). The settings on record: for clethodim tolerance: ACCase mutation tested with the herbicide clethodim; for clethodim tolerance of combined mutations compared with single mutation(s) or parent mutant: double/triple mutants vs single mutations; for effect on clethodim tolerance of the single D2078G mutation: mutation added to D2078G. The experiment is classed as cell-based. The source says: Joachimiak M. et al Proc Natl Acad Sci U.S.A. 1997 Sep. 2; 94 (18): 9990-5 and WO/2013/074524 and WO/2013/074524 each describe methods to complement a yeast (Saccharomyces cerevisiae) strain lacking the native acc1 gene with either a wt or mutated form of a chimeric plastidal ACCase gene from a plant such as rice (Oryza sativa). Methods to introduce one or more mutations listed herein into the chimeric ACCase gene and subsequently complement the acc1 lacking yeast strain are well known by an individual skilled in the art. In the art assays are known for measuring tolerance of a mutated plant ACCase gene versus a herbicide that is a member of the aryloxyphenoxypropanoate, cyclohexanedione, and/or phenylpyrazoline families of herbicides such as clethodim, sethoxydim, fluazifop, haloxyfop, quizalofop, and pinoxaden (Joachimiak M. et al Proc Natl Acad Sci U.S.A. 1997 Sep. 2; 94 (18): 9990-5 and WO/2013/074524).
A library of random mutations in the rice (Oryza sativa) plastidal ACCase gene was generated and screened for clethodim tolerant clones using a yeast complementation assay.

Experiment [2] deals with O. sativa ACCase. Briefly: Growth of Saccharomyces cerevisiae pseudodiploid acc1Δ strains carrying wild-type or mutant OsACCase plasmids, streaked onto plates with increasing concentrations of clethodim (Examples 5, 7, 10; Tables 8, 12). The settings on record: for growth, 0 mM clethodim / growth, 0.025 mM clethodim / growth, 0.1 mM clethodim / growth, 0.25 mM clethodim / growth, 0.5 mM clethodim / growth, 1 mM clethodim: Table 12; for growth, 0 mM clethodim: plate with 0 mM clethodim; for growth, 0 mM clethodim / growth, 0.025 mM clethodim / growth, 0.1 mM clethodim / growth, 0.25 mM clethodim / growth, 0.5 mM clethodim / growth, 1 mM clethodim / relative growth phenotype, 0.05 mM clethodim / relative growth phenotype, 0.1 mM clethodim / relative growth phenotype, 0.25 mM clethodim / relative growth phenotype, 0.5 mM clethodim / relative growth phenotype, 1 mM clethodim / relative growth phenotype, 2 mM clethodim: galactose 0.01%; for growth, 0.025 mM clethodim: plate with 0.025 mM clethodim; for growth, 0.1 mM clethodim / relative growth phenotype, 0.1 mM clethodim: plate with 0.1 mM clethodim; for growth, 0.25 mM clethodim / relative growth phenotype, 0.25 mM clethodim: plate with 0.25 mM clethodim; for growth, 0.5 mM clethodim / relative growth phenotype, 0.5 mM clethodim: plate with 0.5 mM clethodim; for growth, 1 mM clethodim / relative growth phenotype, 1 mM clethodim: plate with 1 mM clethodim; for relative growth phenotype, 0.05 mM clethodim: plate with 0.05 mM clethodim; for relative growth phenotype, 2 mM clethodim: plate with 2 mM clethodim; for relative growth phenotype, highGal / relative growth phenotype, lowGal: yeast acc1Δ strain with OsACCase plasmid, no clethodim; for relative growth phenotype, highGal: high galactose plate; for relative growth phenotype, lowGal: low galactose plate. It counts as cell-based, Oryza sativa. More on the design: key to growth, 0 mM clethodim / growth, 0.025 mM clethodim / growth, 0.1 mM clethodim / growth, 0.25 mM clethodim / growth, 0.5 mM clethodim / growth, 1 mM clethodim: ++ = Strong growth; + = Poor growth; − = No growth; key to relative growth phenotype, 0.5 mM clethodim / relative growth phenotype, 1 mM clethodim / relative growth phenotype, 2 mM clethodim / relative growth phenotype, highGal / relative growth phenotype, lowGal / relative growth phenotype, 0.05 mM clethodim / relative growth phenotype, 0.1 mM clethodim / relative growth phenotype, 0.25 mM clethodim: +++ high growth; ++ moderate growth; + low to negligible growth; (−) some cell debris, no growth; − no growth or cell debris. The text has this:
Mutations at position N2097S and V2098A were combined to determine if point mutations at both positions gave increased resistance compared to either single point mutation. Each of these respective mutations (N2097S, V2098A and N2097S/V2098A) were generated by standard methods and introduced into a Saccharomyces cerevisiae pseudodiploid acc1Δ strain with a plasmid containing wild-type O. sativa ACCase gene. Once each of these mutations were introduced by recombination mediated mutagenesis, the OsACCase wild-type plasmid was removed, and mutation strains were confirmed by sequencing. The three strains, along with a series of controls including a WT strain (negative control), an I1781L mutant strain, and a D2078G mutant strain (positive control), were streaked onto plates with increasing concentrations of clethodim. […] These observations argue that N2097S is an enhancer of V2098A tolerance.
Edits at position S1784N and A1785G were combined to determine if point mutations at both of these two positions gave increased resistance compared to either single point mutation. Each of these respective mutations (S1784N, A1785G and S1784N/A1785G) were generated by standard methods and introduced into a Saccharomyces cerevisiae pseudodiploid acc1Δ strain with a plasmid containing wild-type O. sativa ACCase gene. Once each of these mutations were introduced by recombination mediated mutagenesis, the OsACCase wild-type plasmid was removed, and mutation strains were confirmed by sequencing. The three strains, along with a series of controls including a WT strain (negative control), an I1781L mutant strain, a D2078G mutant strain (positive control), and a V2075L mutant strain were streaked onto plates with increasing concentrations of clethodim.
Each of these respective mutations (D2078G, P2083T, D2078G/P2083T) were generated by standard methods and introduced into a Saccharomyces cerevisiae pseudodiploid acc14 strain with a plasmid containing the wild-type O. sativa ACCase gene. Once plasmids bearing each of these mutations, introduced using recombination-mediated mutagenesis, the OsACCase wild-type plasmid was removed, and strains bearing each mutant plasmid were confirmed by sequencing. The three strains, along with a series of controls including a wild-type strain (negative control), an I1781L mutant strain (medium control), and a pre-existing D2078G mutant strain (positive control) were streaked onto plates with increasing concentrations of clethodim.

Where [3] appears, read: Example 10, highest concentration tested 1 mM, 0.01% galactose.
Where [4] appears, read: plates with increasing clethodim, 0.01% galactose.

For the substance “I1781L: mutated ACCase, numbering per SEQ ID NO: 2; moderate-resistance control”, the clethodim tolerance entry in experiment [1] is on record as “produces tolerance”. For the same substance, the “clethodim tolerance compared to the wild-type (wt) control strain” value in experiment [2] (Example 5, plates with increasing clethodim, 0.01% galactose) is “did produce tolerance”. Moreover, in experiment [2] (setting [3]), the “clethodim concentrations on which the strain grew poorly” value is “up to 0.25 mM” and the “clethodim concentrations on which the strain grew well” value is “up to 0.1 mM”. In experiment [2], the “growth, 0 mM clethodim” value was “++”; the “growth, 0.025 mM clethodim” value is recorded as “++”; the “growth, 0.1 mM clethodim” value is recorded as “++”; the “growth, 0.25 mM clethodim” value is “+”. In experiment [2], the “growth, 0.5 mM clethodim” value is reported as “−”; the “growth, 1 mM clethodim” value is given as “−”; the “relative growth phenotype, 0.05 mM clethodim” value was “+++”; the “relative growth phenotype, 0.1 mM clethodim” value is given as “+++”. In addition, in experiment [2], the “relative growth phenotype, 0.25 mM clethodim” value is reported as “++”; the “relative growth phenotype, 0.5 mM clethodim” value is reported as “(−)”; the “relative growth phenotype, 1 mM clethodim” value is “(−)”; the “relative growth phenotype, 2 mM clethodim” value is on record as “(−)”. Further, in experiment [2], the “relative growth phenotype, highGal” value is reported as “+++” and the “relative growth phenotype, lowGal” value was “+++”. In addition, the “growth on clethodim plates (in words)” value in experiment [2] (setting [4]) is listed as “consistent with moderate resistance”.

Turning to V2098A/N2097D: double mutant ACCase, the “clethodim tolerance of combined mutations compared with single mutation(s) or parent mutant” value in experiment [1] is “either less, or no more, tolerant than the single D2078G, V2075L and V2098A mutations”.

As to “L1818I: mutated ACCase, numbering per SEQ ID NO: 2”, in experiment [1], the clethodim tolerance entry is “measurable clethodim tolerance”.

Regarding “R1672I/M1975T/D2078G: triple mutant ACCase clone”, the “clethodim tolerance of combined mutations compared with single mutation(s) or parent mutant” value in experiment [1] is recorded as “increased clethodim tolerance compared to the single D2078G mutation”.

Take V2075L/N2097D: double mutant ACCase: in experiment [1], the “clethodim tolerance of combined mutations compared with single mutation(s) or parent mutant” value was “either less, or no more, tolerant than the single D2078G, V2075L and V2098A mutations”.

Take “L1818H: mutated ACCase, numbering per SEQ ID NO: 2”: the clethodim tolerance result in experiment [1] is listed as “measurable clethodim tolerance”.

As to “L1543F: mutated ACCase, numbering per SEQ ID NO: 2”, the clethodim tolerance entry in experiment [1] is “measurable clethodim tolerance”.

With “M1974T: mutated ACCase, numbering per SEQ ID NO: 2”, in experiment [1], the clethodim tolerance entry is given as “neither R1672I nor M1974T alone provide measurable tolerance” and the “effect on clethodim tolerance of the single D2078G mutation” value (shortened to “effect on clethodim tolerance”) was “increase tolerance of the single D2078G mutation”.

In the case of S1784N/A1785G: double mutant ACCase, the “clethodim concentrations on which the strain grew” value in experiment [2] (Example 7, plates with increasing clethodim, 0.01% galactose) is “up to 1 mM”. In experiment [2], the “relative growth phenotype, 0.05 mM clethodim” value is listed as “+++”; the “relative growth phenotype, 0.1 mM clethodim” value is on record as “+++”; the “relative growth phenotype, 0.25 mM clethodim” value was “+++”; the “relative growth phenotype, 0.5 mM clethodim” value is on record as “+++”. In experiment [2], the “relative growth phenotype, 1 mM clethodim” value is on record as “+”; the “relative growth phenotype, 2 mM clethodim” value is given as “(−)”; the “relative growth phenotype, highGal” value was “+++”; the “relative growth phenotype, lowGal” value is recorded as “+++”. Besides, the “tolerance/resistance of double mutant compared with single mutation(s)” value in experiment [2] (setting [4]) was “superior in terms of resistance to either individual mutation”.

Take “D1681E: mutated ACCase, numbering per SEQ ID NO: 2”: in experiment [1], the clethodim tolerance entry was “measurable clethodim tolerance”.

As to L1543F-D1681E: double mutant ACCase, the “clethodim tolerance of combined mutations compared with single mutation(s) or parent mutant” value in experiment [1] is reported as “increased clethodim tolerance compared to any one mutation alone”.

Consider L1543V-D1681E: double mutant ACCase, for which the “clethodim tolerance of combined mutations compared with single mutation(s) or parent mutant” value in experiment [1] is “increased clethodim tolerance compared to any one mutation alone”.

For the substance R1672I-D2078G: double mutant ACCase, the “clethodim tolerance of combined mutations compared with single mutation(s) or parent mutant” value in experiment [1] is listed as “tolerance that is similar to the corresponding original triple mutants”.

As for “C2088M: mutated ACCase, numbering per SEQ ID NO: 2”, the clethodim tolerance result in experiment [1] is on record as “produces measurable tolerance”.

Take N2097S/V2098A: double mutant ACCase: the “tolerance/resistance of double mutant compared with single mutation(s)” value in experiment [2] (setting [4]) is “notably increased compared to the V2098A change alone”.

On to L1543V-D1681G: double mutant ACCase, for which, in experiment [1], the “clethodim tolerance of combined mutations compared with single mutation(s) or parent mutant” value is “increased clethodim tolerance compared to any one mutation alone”.

Take “M1975T: mutated ACCase, numbering per SEQ ID NO: 2”: in experiment [1], the “effect on clethodim tolerance” value is given as “neither M1975T nor M2257I provide detectable clethodim tolerance increase to the single D2078G mutation”.

Turning to “R1672I: mutated ACCase, numbering per SEQ ID NO: 2”, in experiment [1], the clethodim tolerance result is given as “neither R1672I nor M1974T alone provide measurable tolerance” and the “effect on clethodim tolerance” value was “increase tolerance of the single D2078G mutation”.

Turning to “S1784N plus L1818H: double mutant ACCase”, the “clethodim tolerance of combined mutations compared with single mutation(s) or parent mutant” value in experiment [1] is “improves tolerance in comparison to either single mutation”.

With D2078G/N2097S: double mutant ACCase, the “clethodim tolerance of combined mutations compared with single mutation(s) or parent mutant” value in experiment [1] was “either less, or no more, tolerant than the single D2078G, V2075L and V2098A mutations”.

On to M1974T-D2078G: double mutant ACCase, for which, in experiment [1], the “clethodim tolerance of combined mutations compared with single mutation(s) or parent mutant” value is “tolerance that is similar to the corresponding original triple mutants”.

With “D1681G: mutated ACCase, numbering per SEQ ID NO: 2”, in experiment [1], the clethodim tolerance entry is given as “measurable clethodim tolerance”.

Consider “P2083T: mutated ACCase, numbering per SEQ ID NO: 2”, for which, in experiment [2], the “growth, 0 mM clethodim” value is recorded as “++”; the “growth, 0.025 mM clethodim” value is “−”; the “growth, 0.1 mM clethodim” value was “−”; the “growth, 0.25 mM clethodim” value was “−”. Also, in experiment [2], the “growth, 0.5 mM clethodim” value is given as “−” and the “growth, 1 mM clethodim” value is reported as “−”. Besides, the “growth on clethodim plates (in words)” value in experiment [2] (setting [4]) is on record as “unable to grow on all concentrations of clethodim tested”.

As to “S1784G: mutated ACCase, numbering per SEQ ID NO: 2”, the clethodim tolerance entry in experiment [1] was “measurable clethodim tolerance”.

For L1543F-D1681G: double mutant ACCase, the “clethodim tolerance of combined mutations compared with single mutation(s) or parent mutant” value in experiment [1] is recorded as “increased clethodim tolerance compared to any one mutation alone”.

Turning to “L1543V: mutated ACCase, numbering per SEQ ID NO: 2”, in experiment [1], the clethodim tolerance result was “measurable clethodim tolerance”.
